Reference: ChEMBL document CHEMBL5724914, “Linking interpersonal differences in gut microbiota composition and drug biotransformation activity” (2024)

How the values were obtained:
[1] = (§1) The drug is tested on WLS-027 corresponding to human gut metagenome with ENA study accession number: PRJEB37062 and ENA sample accession number: ERS12561744 for biotransformation under anaerobic condition. The drug concentrations were measured over 9 timepoints collected between 0 and 24 hours of incubation by liquid-chromatography-coupled mass spectrometry (LC–MS); settings: 2 µM
[2] = as §1, with “WLS-073” for “WLS-027”, “ERS12561749” for “ERS12561744”; settings: 2 µM
[3] = as §1, with “WLS-052” for “WLS-027”, “ERS12561747” for “ERS12561744”; settings: 2 µM
[4] = human gut metagenome, 24 h, 2 µM
[5] = human gut metagenome, 24 h, 2 µM; remark: listed apart in the source
[6] = human gut metagenome, 24 h, 2 µM; remark: listed apart in the source
[7] = as §1, with “WLS-370” for “WLS-027”, “ERS12561793” for “ERS12561744”; settings: 2 µM
[8] = as §1, with “Z-009” for “WLS-027”, “pig” for “human”, “ERS12561809” for “ERS12561744”; settings: 2 µM
[9] = as §1, with “Z-006” for “WLS-027”, “mouse” for “human”, “ERS12561806” for “ERS12561744”; settings: 2 µM
[10] = human gut metagenome, 24 h, 2 µM; remark: listed apart in the source
[11] = human gut metagenome, 24 h, 2 µM; remark: listed apart in the source
[12] = human gut metagenome, 24 h, 2 µM; remark: listed apart in the source
[13] = as §1, with “Z-005” for “WLS-027”, “to” for “to human gut”, “ERS12561805” for “ERS12561744”; settings: 2 µM
[14] = as §1, with “Z-008” for “WLS-027”, “to” for “to human gut”, “ERS12561808” for “ERS12561744”; settings: 2 µM
[15] = as §1, with “WLS-090” for “WLS-027”, “ERS12561753” for “ERS12561744”; settings: 2 µM
[16] = human gut metagenome, 24 h, 2 µM; remark: listed apart in the source
[17] = human gut metagenome, 24 h, 2 µM; remark: listed apart in the source
[18] = as §1, with “WLS-007” for “WLS-027”, “ERS12561742” for “ERS12561744”; settings: 2 µM
[19] = as §1, with “WLS-039” for “WLS-027”, “ERS12561746” for “ERS12561744”; settings: 2 µM
[20] = as §1, with “Z-002” for “WLS-027”, “rabbit” for “human”, “ERS12561802” for “ERS12561744”; settings: 2 µM
Further: call rule not given here.

SMILES	Bacterial Biotransformation [1]	Bacterial Biotransformation [2]	Bacterial Biotransformation [3]	Bacterial Biotransformation [4]	Bacterial Biotransformation [5]	Bacterial Biotransformation [6]	Bacterial Biotransformation [7]	Bacterial Biotransformation [8]	Bacterial Biotransformation [9]	Bacterial Biotransformation [10]	Bacterial Biotransformation [11]	Bacterial Biotransformation [12]	Bacterial Biotransformation [13]	Bacterial Biotransformation [14]	Bacterial Biotransformation [15]	Bacterial Biotransformation [16]	Bacterial Biotransformation [17]	Bacterial Biotransformation [18]	Bacterial Biotransformation [19]	Bacterial Biotransformation [20]
CC(NC(C)(C)C)C(=O)c1cccc(Cl)c1 (stereo not given) [BUPROPION]	Compound NOT metabolized	Compound NOT metabolized	Compound NOT metabolized	Compound metabolized	Compound NOT metabolized	Compound NOT metabolized	Compound NOT metabolized	Compound NOT metabolized	Compound NOT metabolized	Compound NOT metabolized	Compound NOT metabolized	Compound NOT metabolized	Compound NOT metabolized	Compound NOT metabolized	Compound NOT metabolized	Compound NOT metabolized	Compound NOT metabolized	Compound NOT metabolized	Compound NOT metabolized	Compound NOT metabolized
O=C1CC2(CCCC2)CC(=O)N1CCCCN1CCN(c2ncccn2)CC1 [BUSPIRONE]	Compound NOT metabolized	Compound NOT metabolized	Compound NOT metabolized	Compound metabolized	Compound metabolized	Compound metabolized	Compound NOT metabolized	Compound NOT metabolized	Compound NOT metabolized	Compound NOT metabolized	Compound NOT metabolized	Compound NOT metabolized	Compound NOT metabolized	Compound NOT metabolized	Compound metabolized	Compound NOT metabolized	Compound metabolized	Compound NOT metabolized	Compound NOT metabolized	Compound metabolized
CCCC(C)(COC(N)=O)COC(=O)NC(C)C (stereo not given) [CARISOPRODOL]	Compound metabolized	Compound metabolized	Compound metabolized	Compound metabolized	Compound metabolized	Compound NOT metabolized	Compound metabolized	Compound metabolized	Compound metabolized	Compound NOT metabolized	Compound metabolized	Compound NOT metabolized	Compound metabolized	Compound metabolized	Compound metabolized	Compound metabolized	Compound metabolized	Compound metabolized	Compound metabolized	Compound metabolized
COc1ccccc1OCCNCC(O)COc1cccc2[nH]c3ccccc3c12 (stereo not given) [CARVEDILOL]	Compound metabolized	Compound metabolized	Compound metabolized	Compound metabolized	Compound metabolized	Compound metabolized	Compound NOT metabolized	Compound NOT metabolized	Compound NOT metabolized	Compound NOT metabolized	Compound metabolized	Compound NOT metabolized	Compound NOT metabolized	Compound NOT metabolized	Compound metabolized	Compound NOT metabolized	Compound metabolized	Compound NOT metabolized	Compound metabolized	Compound NOT metabolized
CN1CCC[C@@H]1CCO[C@](C)(c1ccccc1)c1ccc(Cl)cc1.O=C(O)/C=C/C(=O)O [CLEMASTINE FUMARATE]	Compound metabolized	Compound NOT metabolized	Compound NOT metabolized	Compound metabolized	Compound NOT metabolized	Compound metabolized	Compound metabolized	Compound NOT metabolized	Compound NOT metabolized	Compound NOT metabolized	Compound NOT metabolized	Compound NOT metabolized	Compound NOT metabolized	Compound NOT metabolized	Compound NOT metabolized	Compound metabolized	Compound NOT metabolized	Compound NOT metabolized	Compound metabolized	Compound NOT metabolized
CC(C)(C)NCC(O)c1cc(Cl)c(N)c(Cl)c1 (stereo not given) [CLENBUTEROL]	Compound NOT metabolized	Compound NOT metabolized	Compound NOT metabolized	Compound NOT metabolized	Compound NOT metabolized	Compound NOT metabolized	Compound NOT metabolized	Compound NOT metabolized	Compound NOT metabolized	Compound NOT metabolized	Compound NOT metabolized	Compound NOT metabolized	Compound NOT metabolized	Compound NOT metabolized	Compound NOT metabolized	Compound NOT metabolized	Compound NOT metabolized	Compound NOT metabolized	Compound NOT metabolized	Compound NOT metabolized
C[N+]12CCC(CC1)C(OC(=O)C(O)(c1ccccc1)c1ccccc1)C2.[Br-] (stereo not given) [CLIDINIUM BROMIDE]	Compound NOT metabolized	Compound NOT metabolized	Compound metabolized	Compound metabolized	Compound metabolized	Compound metabolized	Compound metabolized	Compound metabolized	Compound NOT metabolized	Compound NOT metabolized	Compound NOT metabolized	Compound NOT metabolized	Compound NOT metabolized	Compound NOT metabolized	Compound metabolized	Compound NOT metabolized	Compound NOT metabolized	Compound NOT metabolized	Compound metabolized	Compound NOT metabolized
